Test results as given in ChEMBL document CHEMBL5346885, “"Hit" to lead optimization and chemoinformatic studies for a new series of Autotaxin inhibitors” (Eur J Med Chem, 2023).
Values after ≈ are worked out from the molar mass of the structure shown. Active and inactive are the calls of the source. No cut-off for these calls is given here.

Key:
Autotaxin [1] = target: T1, Autotaxin (Homo sapiens, UniProt Q13822); experiment: Inhibition of human ATX using LPC as substrate preincubated with compound for 15 mins followed by substrate addition measured after 30 mins by Amplex Red reagent based fluorescence analysis
Autotaxin [2] = target: Autotaxin (Mus musculus, UniProt Q9R1E6); experiment: Inhibition of mouse ATX using LPC as substrate preincubated with compound for 15 mins followed by substrate addition measured after 30 mins by Amplex Red reagent based fluorescence analysis
[3] = target: 3',5'-cyclic phosphodiesterase; experiment: Inhibition of PDE (unknown origin); assay type: protein assay, Homo sapiens
[4] = Cytotoxicity against wild type Fibroblast (unknown origin) assessed as redcution in cell growth measured after 48 hrs by crystal violet staining based analysis; settings: wild type fibroblasts
[5] = Kinetic solubility of compound in simulated gastric fluid at pH 1.7 by HPLC analysis
[6] = test system: CO[C@](C(=O)Nc1c2c(nn1-c1ccc(Br)cc1)CSC2)(c1ccccc1)C(F)(F)F; experiment: (§1) Mixed type inhibition of human ATX assessed as km using LPC as substrate by Lineweaver-Burk plot analysis
[7] = test system: O=C(Nc1c2c(nn1-c1ccc(Br)cc1)CSC2)c1cc(Cl)cc(Cl)c1; experiment: as §1
[8] = Kinetic solubility of compound in PBS at pH 7.4 by HPLC analysis
[9] = Kinetic solubility of compound in simulated intestinal fluid at pH 6.6 by HPLC analysis
A549 [10] = experiment: Inhibition of cell migration in human A549 cells at 5 uM incubated for 24 hrs by crystal violet staining based transwell assay; assay type: functional
Autotaxin [11] = target: T1, Autotaxin; experiment: Mixed type inhibition of human ATX assessed as inhibition constant using LPC as substrate by Lineweaver-Burk plot analysis
A549 [12] = experiment: Antitumor activity against human A549 cells assessed as redcution in cell viability measured after 24 hrs by MTT assay; assay type: functional, cell-based; settings: dose 0.5-50 µM
A549 [13] = experiment: Antiproliferative activity against human A549 cells assessed as redcution in cell growth measured after 24 hrs by MTT assay; assay type: functional, cell-based; settings: dose 0.5-50 µM

IC50 (Autotaxin [1]) | IC50 (Autotaxin [2]) | Compound | also measured
11.2 µM | – | O=C(Nc1c2c(nn1-c1ccc(Br)cc1)CSC2)c1cc(F)cc(C(F)(F)F)c1 | –
> 100 µM | – | O=C(Nc1c2c(nn1-c1ccc(Br)cc1)CS(=O)(=O)C2)c1cccc2ccccc12 | –
– | 40 µM | O=C(Nc1c2c(nn1-c1ccc(Cl)c(Cl)c1)CSC2)c1cccc2ccccc12 | –
– | 63 µM | O=C(Nc1c2c(nn1-c1ccc(F)c(F)c1)CSC2)c1cccc2ccccc12 | –
0.9 µM | 1.8 µM | O=C(Nc1c2c(nn1-c1cnccn1)CSC2)c1cccc2ccccc12 | IC50 [3]: 0.33 µM
24.4 µM | – | CO[C@](C(=O)Nc1c2c(nn1-c1ccc(Br)cc1)CCC2)(c1ccccc1)C(F)(F)F | –
25 µM | – | O=C(CN1CCN(C(=O)c2cc(Cl)cc(Cl)c2)CC1)Nc1ccn(-c2ccc(Br)cc2)n1 | –
– | 80 µM | Cc1ccc(-n2nc3c(c2NC(=O)c2cccc4ccccc24)CSC3)cc1Cl | –
16 µM | 38.4 µM | O=C(Nc1c2c(nn1-c1ccc([N+](=O)[O-])cc1)CSC2)c1cccc2ccccc12 | CC50 at 48 h [4]: > 100 µM; solubility kinetic [5]: 2.73 µM (≈ 1.14 µg/mL); IC50 [3]: 73 µM
– | > 100 µM | CC(C)(C)n1nc2c(c1NC(=O)c1cccc3ccccc13)CSC2 | –
– | – | Autotaxin (Homo sapiens) (from UniProt Q13822) | Km [6]: 5.61 µM; Km [7]: 17.1 µM
> 100 µM | > 100 µM | O=C(Nc1c2c(nn1-c1ccccc1)CSC2)c1cccc2ccccc12 | –
4.6 µM | 5.3 µM | O=C(Nc1c2c(nn1-c1ccc(Br)cc1)CSC2)c1cccc2ccccc12 | –
– | 79.8 µM | NS(=O)(=O)c1ccc(-n2nc3c(c2NC(=O)c2cccc4ccccc24)CSC3)cc1 | –
– | > 100 µM | COC(=O)c1ccc(-n2nc3c(c2NC(=O)c2cccc4ccccc24)CSC3)cc1 | –
7.6 µM | – | O=C(Cc1ccc(F)cc1)Nc1c2c(nn1-c1ccc(Br)cc1)CSC2 | –
> 50 µM | – | O=C(Cc1ccc(F)cc1)Nc1c2c(nn1-c1ccncc1)CSC2 | –
70 µM | – | O=C(c1cc(Cl)cc(Cl)c1)N1CCN(c2c3c(nn2-c2ccc(Br)cc2)CSC3)CC1 | –

IC50 (Autotaxin [1]) | IC50 (Autotaxin [2]) | Compound | also measured
> 100 µM | > 100 µM | COc1ccc(-n2nc3c(c2NC(=O)c2cccc4ccccc24)CSC3)cc1 | –
> 100 µM | – | O=C(Nc1c2c(nn1-c1ccc(Br)cc1)COC2)c1cc(Cl)cc(Cl)c1 | –
– | 48.3 µM | O=C(O)c1ccc(-n2nc3c(c2NC(=O)c2cccc4ccccc24)CSC3)cc1 | –
37.3 µM | – | O=C(Nc1c2c(nn1-c1ccc(Br)cc1)CSC2)c1ccc(C(F)(F)F)cc1 | –
6.6 µM | – | O=C(Nc1c2c(nn1-c1ccc(Br)cc1)CCC2)c1cc(Cl)cc(Cl)c1 | –
12.1 µM | – | O=C(Nc1c2c(nn1-c1ccc(Br)cc1)CSC2)c1ccc2ccccc2c1 | –
– | 22.1 µM | O=C(Nc1c2c(nn1-c1ccc(OC(F)(F)F)cc1)CSC2)c1cccc2ccccc12 | –
41.8 µM | – | Cc1cc(C(=O)Nc2c3c(nn2-c2ccc(Br)cc2)CSC3)ccc1F | –
– | – | CCc1nc2c(C)cc(N3CCN(CC(=O)N4CC(O)C4)CC3)cn2c1N(C)c1nc(-c2ccc(F)cc2)c(C#N)s1 [ZIRITAXESTAT] | solubility kinetic [8]: 96.9 µM (≈ 57 µg/mL); solubility kinetic [5]: 200 µM (≈ 118 µg/mL); solubility kinetic [9]: 97 µM (≈ 57.1 µg/mL)
2 µM | – | CO[C@](C(=O)Nc1c2c(nn1-c1ccc(Br)cc1)CSC2)(c1ccccc1)C(F)(F)F | inhibition (A549 [10]): Active; Ki (Autotaxin [11]): 6.83 µM; solubility kinetic [8]: 1.26 µM (≈ 0.646 µg/mL); Activity (A549 [12]): Dose-Dependent Effect; CC50 at 48 h [4]: > 100 µM; Activity (A549 [13]): Dose-Dependent Effect; solubility kinetic [5]: 16.7 µM (≈ 8.58 µg/mL); solubility kinetic [9]: 2.55 µM (≈ 1.31 µg/mL)
– | 53.7 µM | O=C(Nc1c2c(nn1-c1cc(F)cc(F)c1)CSC2)c1cccc2ccccc12 | –
5.3 µM | 2.7 µM | O=C(Nc1c2c(nn1-c1ccncc1)CSC2)c1cccc2ccccc12 | –
– | – | O=C1S/C(=C\c2ccc(OCc3ccc(B(O)O)cc3)cc2)C(=O)N1Cc1ccc(F)cc1 | solubility kinetic [5]: 3.08 µM (≈ 1.43 µg/mL); solubility kinetic [9]: 1.05 µM (≈ 0.486 µg/mL)
6.7 µM | 1.8 µM | O=C(Nc1c2c(nn1-c1ccc(Br)cc1)CSC2)c1cc(Cl)cc(Cl)c1 | inhibition (A549 [10]): Active; Ki (Autotaxin [11]): 6.26 µM; Activity (A549 [12]): Dose-Dependent Effect; CC50 at 48 h [4]: > 100 µM; Activity (A549 [13]): Dose-Dependent Effect; solubility kinetic [5]: 5.02 µM (≈ 2.36 µg/mL); solubility kinetic [9]: 4.18 µM (≈ 1.96 µg/mL)
21.2 µM | – | O=C(Cc1ccc2ccccc2c1)Nc1c2c(nn1-c1ccc(Br)cc1)CSC2 | –
– | 46.6 µM | O=C(Nc1c2c(nn1-c1ccc(C(F)(F)F)cc1)CSC2)c1cccc2ccccc12 | –
– | – | O=C(CCN1CCN(C(=O)OCc2cc(Cl)cc(Cl)c2)CC1)c1ccc2[nH]c(=O)oc2c1 | solubility kinetic [8]: 1.22 µM (≈ 0.584 µg/mL); solubility kinetic [5]: 15.4 µM (≈ 7.35 µg/mL)
– | 40.8 µM | O=C(Nc1c2c(nn1-c1ccc(F)c(Cl)c1)CSC2)c1cccc2ccccc12 | –
